Results published in publication PMC4829233, “Identification of Novel Chemical Scaffolds Inhibiting Trypanothione Synthetase from Pathogenic Trypanosomatids” (PLoS Neglected Tropical Diseases, 2016).
“And” between values parts separate entries of the source, which are not always exact repeats. Equal entries are not always repeated. Where two headings read alike, the source gives them in different places.

Key:
Assay in all cases: biochemical
[1] = biological target: TcTryS (Trypanosoma cruzi trypanothione synthetase) (Trypanosoma cruzi, UniProt Q9GT49); type: biochemical; conditions: for remaining activity at 30 µM: read-out: TcTryS Activity ± 2σn-1 (%); for inhibition at 30 µM: read-out: % TcTryS inhibition ± 2σn-1
[2] = biological target: LiTryS (Leishmania infantum trypanothione synthetase) (Leishmania infantum, UniProt A4I2Z3); type: biochemical; conditions: for activity at 30 µM: read-out: LiTryS Activity ± 2σn-1 (%); for inhibition at 30 µM: read-out: % LiTryS inhibition ± 2σn-1
[3] = biological target: TbTryS (Trypanosoma brucei trypanothione synthetase) (Trypanosoma brucei brucei, UniProt Q8IEX1); conditions: for activity at 30 µM: read-out: TbTryS Activity ± 2σn-1 (%)
TbTryS (Trypanosoma brucei trypanothione synthetase), sequence (Q8IEX1 1-627): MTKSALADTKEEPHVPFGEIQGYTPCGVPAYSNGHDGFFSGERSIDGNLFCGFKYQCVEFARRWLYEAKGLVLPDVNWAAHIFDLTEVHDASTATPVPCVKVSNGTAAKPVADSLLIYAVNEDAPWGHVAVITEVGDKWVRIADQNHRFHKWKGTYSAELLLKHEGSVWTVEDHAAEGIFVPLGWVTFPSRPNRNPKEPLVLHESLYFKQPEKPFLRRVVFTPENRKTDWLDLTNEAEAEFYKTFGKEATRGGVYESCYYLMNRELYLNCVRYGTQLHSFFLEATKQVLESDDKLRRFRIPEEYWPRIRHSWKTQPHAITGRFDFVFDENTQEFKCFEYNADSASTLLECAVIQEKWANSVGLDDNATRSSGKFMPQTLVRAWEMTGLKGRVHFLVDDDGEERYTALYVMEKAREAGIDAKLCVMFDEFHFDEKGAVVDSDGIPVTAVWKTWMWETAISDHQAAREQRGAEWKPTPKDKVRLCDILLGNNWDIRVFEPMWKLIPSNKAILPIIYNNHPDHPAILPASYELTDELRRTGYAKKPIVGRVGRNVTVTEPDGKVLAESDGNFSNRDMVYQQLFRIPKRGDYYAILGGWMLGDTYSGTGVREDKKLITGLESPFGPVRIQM

LiTryS (Leishmania infantum trypanothione synthetase), sequence (A4I2Z3 1-652): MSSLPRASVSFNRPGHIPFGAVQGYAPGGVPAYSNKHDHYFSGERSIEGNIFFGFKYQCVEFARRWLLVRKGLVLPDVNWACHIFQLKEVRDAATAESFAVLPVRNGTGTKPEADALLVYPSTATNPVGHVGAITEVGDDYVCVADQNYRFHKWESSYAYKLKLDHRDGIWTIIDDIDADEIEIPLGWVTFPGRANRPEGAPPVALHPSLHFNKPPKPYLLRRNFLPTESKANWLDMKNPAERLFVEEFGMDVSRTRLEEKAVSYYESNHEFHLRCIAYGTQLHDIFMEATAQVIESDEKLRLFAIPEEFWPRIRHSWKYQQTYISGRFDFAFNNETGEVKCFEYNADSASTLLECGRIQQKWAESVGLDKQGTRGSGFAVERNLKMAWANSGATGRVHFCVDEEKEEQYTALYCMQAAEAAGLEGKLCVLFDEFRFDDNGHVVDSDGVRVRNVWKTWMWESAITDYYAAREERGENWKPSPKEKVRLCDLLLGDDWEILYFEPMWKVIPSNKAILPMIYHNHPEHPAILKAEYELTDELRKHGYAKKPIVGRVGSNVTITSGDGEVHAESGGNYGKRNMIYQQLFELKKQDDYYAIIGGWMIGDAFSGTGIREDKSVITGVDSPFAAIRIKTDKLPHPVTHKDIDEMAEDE
TcTryS (Trypanosoma cruzi trypanothione synthetase), sequence (Q9GT49 whole entry): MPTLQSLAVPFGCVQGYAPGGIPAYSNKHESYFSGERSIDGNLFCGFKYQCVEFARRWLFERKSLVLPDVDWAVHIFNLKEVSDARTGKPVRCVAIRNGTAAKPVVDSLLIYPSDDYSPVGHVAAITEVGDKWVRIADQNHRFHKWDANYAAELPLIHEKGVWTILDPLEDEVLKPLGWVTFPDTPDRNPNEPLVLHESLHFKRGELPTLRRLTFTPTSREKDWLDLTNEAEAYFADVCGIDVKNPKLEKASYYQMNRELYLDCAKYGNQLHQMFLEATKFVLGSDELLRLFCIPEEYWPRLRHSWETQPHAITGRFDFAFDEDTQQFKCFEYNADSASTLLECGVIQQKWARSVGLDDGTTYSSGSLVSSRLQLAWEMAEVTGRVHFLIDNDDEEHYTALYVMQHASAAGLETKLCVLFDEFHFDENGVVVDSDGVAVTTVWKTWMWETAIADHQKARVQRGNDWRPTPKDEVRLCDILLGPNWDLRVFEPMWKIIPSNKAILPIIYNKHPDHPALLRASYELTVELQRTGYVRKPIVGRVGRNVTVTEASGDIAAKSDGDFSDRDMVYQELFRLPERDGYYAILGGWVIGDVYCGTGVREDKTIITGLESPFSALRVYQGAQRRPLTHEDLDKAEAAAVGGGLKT

SMILES	TcTryS Activity ± 2σn-1 (%) [1]	LiTryS Activity ± 2σn-1 (%) [2]	TbTryS Activity ± 2σn-1 (%) [3]	also measured
Fc1ccc(CNCCCCCCCCCCCCNCc2ccc(F)cc2)cc1 [EAP1-69]	56.3 ± 3.6; 3%	63.2 ± 5.0; 4%	81.4 ± 5.6; 4 (1.39) %	% TcTryS inhibition ± 2σn-1 [1]: ~ 50%
c1ccc(CNCCCCCCCCNCc2ccccc2)cc1 [EAP1-5 (I)]	82.8 ± 5.2; 3%	62.8 ± 3.9; 4%	78.3 ± 3.6; 4%	
COc1cc(CNCCCCNCc2ccc(O)c(OC)c2)ccc1O [APC1-93]	94.4 ± 2.4; 4%	101.3 ± 8.7. 4%	94.0 ± 9.1; 5%	
c1ccc(COc2ccc(CNCCCCCCCCNCc3ccc(OCc4ccccc4)cc3)cc2)cc1 [APC1-109]	66.2 ± 10.9; 2%	72.2 ± 6.2; 4%		
Cn1c(=O)c2c(nc(N/N=C\c3ccc(O)cc3O)n2CC(O)COc2ccccc2)n(C)c1=O (centres unmarked) [TC227, (Z)-8-(2-(2,4-dihydroxybenzylidene)hydrazinyl)-7-(2-hydroxy-3-phenoxypropyl)-1,3-dimethyl-1H-purine-2,6(3H,7H)-dione]	161.6 ± 5.3; 3 (0.98) %			% TryS activity (TcTryS) [1]: 1.1 ± 3.1; 4% and 0.2 ± 3.1; 4% and 1.1 ± 2.1; 4%; remaining activity at 30 µM [1]: 162%; activity at 30 µM [2]: 88.5 ± 7.1%; activity at 30 µM [3]: 102 ± 2.3%
COc1ccc(C2C(C(=O)c3ccc(OC)c(OC)c3)=C(O)C(=O)N2c2nc3ccc(OC)cc3s2)cc1 (centres unmarked) [ADPKN 162]	98.1 ± 4.7; 4%	79.8 ± 3.4; 4%	82.0 ± 1.6; 3%	
COc1ccc(CNCCCCCCCCCCCCNCc2ccc(OC)cc2)cc1 [EAP1-11]	82.8 ± 7.6; 3%	62.0 ± 7.8; 4%	77.2 ± 4.5; 5 (1.30) %	
Cc1ccc(CNCCCCCCCCNCc2ccc(C)cc2)cc1 [EAP1-45]	92.3 ± 4.5; 4%	91.9 ± 2.7; 3%	78.4 ± 0.6; 3%	
COc1ccc(C2C(C(=O)c3ccc4c(c3)OCCO4)=C(O)C(=O)N2c2nc3ccc(Cl)cc3s2)cc1OC (centres unmarked) [ADMRC157]	109.2 ± 1.5; 4%	89.1 ± 2.8; 4%	102.1 ± 0.01; 3%	
COc1cc(C2C(C(=O)c3ccc4c(c3)OCCO4)=C(O)C(=O)N2c2nc3ccc(C)cc3s2)ccc1O (centres unmarked) [ADMRC152]	103.1 ± 6.2; 3%	92.5 ± 6.6; 4%	115.4 ± 4.3; 3%	
c1ccc(COc2ccc(CNCCCCCCNCc3ccc(OCc4ccccc4)cc3)cc2)cc1 [APC1-99]				inhibition at 30 µM [1]: 33.4 ± 4.1%; remaining activity at 30 µM [1]: 66.6%; IC50 [3]: ~30 µM
CCCCn1c(=O)[nH]c(=O)c2c1nc(CSc1cccc(C(F)(F)F)c1)n2C [Compound C3, reference compound]	91.1 ± 4.6; 4%	84.5 ± 3.3; 3%	92.7 ± 3.6; 3%	
CCNC(=S)Nc1nc2nc(NCCCN3CCOCC3)ncc2cc1-c1cc(OC)cc(OC)c1 [ZVR159]	168.6 ± 4.1; 4 (1.10) %			% TryS activity (TcTryS) [1]: 1.2 ± 3.1; 3% and 0.2 ± 4.0; 4% and 1.2 ± 5.1; 4%; remaining activity at 30 µM [1]: 169%; activity at 30 µM [2]: 101 ± 5.8%; activity at 30 µM [3]: 81.3 ± 1.6%
COc1ccc(CNCCCCCCNCc2ccc(OC)cc2)cc1 [APC1-98]	94.2 ± 5.5; 2%	79.6 ± 5.6; 4%	72.8 ± 3.7; 4%	
[O-][n+]1onc2cc(F)ccc21 [Compound J31]	118.8 ± 6.1; 4 (1.00) %			remaining activity at 30 µM [1]: 119%; activity at 30 µM [2]: 84.1 ± 0.001%; activity at 30 µM [3]: 96.2 ± 3.7%
COc1ccc(C(=O)C2=C(O)C(=O)N(c3nc4ccc(Cl)cc4s3)C2c2ccc(F)cc2)cc1OC (centres unmarked) [ADPKN164]	99.6 ± 5.7; 4%			remaining activity at 30 µM [1]: 99.6 ± 5.7%; inhibition at 30 µM [2]: ~35%; activity at 30 µM [2]: 66 ± 3.4%; TbTryS Activity ± 2σn-1 (%) ([3]; 30 µM): 123.2 ± 7.0; 4 (0.83) %; activity at 30 µM [3]: 123%
COc1ccc(C2C(C(=O)c3ccc4c(c3)OCCO4)=C(O)C(=O)N2c2nc3ccccc3s2)cc1 (centres unmarked) [ADPKN165]	107.1 ± 4.5; 4%			remaining activity at 30 µM [1]: 107 ± 4.5%; activity at 30 µM [2]: 83.5 ± 6%; activity at 30 µM [3]: 166%
c1ccc(COc2ccc(CNCCCNCc3ccc(OCc4ccccc4)cc3)cc2)cc1 [APC1-71B]	99.0 ± 19.1; 2%	80.8 ± 8.7; 3%	66.0 ± 0.7; 3%	
CCNC(=S)Nc1nc2nc(N)ncc2cc1-c1ccc2c(c1)OCO2 [ZEA41]				inhibition at 30 µM [1]: 50%; inhibition at 30 µM [2]: 13.6 ± 3.4%; activity at 30 µM [2]: 86.4%; inhibition at 30 µM ([3]; read-out: % TbTryS inhibition ± 2σn-1): 20.9 ± 4.4%; activity at 30 µM [3]: 79.1%
Brc1ccc(CNCCCCCCCCCCNCc2ccc(Br)cc2)cc1 [EAP1-57]	81.2 ± 4.2; 3%	75.2 ± 4.5; 3%	62.6 ± 3.6; 3 (1.26) %	
COc1ccc2nc(N3C(=O)C(O)=C(C(=O)c4ccc5c(c4)OCCO5)C3c3ccc(OC)c(OC)c3)sc2c1 (centres unmarked) [ADMRC155]	104.0 ± 6.6; 4%	89.3 ± 7.4; 3%	97.5 ± 3.4; 3%	
